# Source: PMC4016139, “Inhibition of K^+ Transport through Na^+, K^+-ATPase by Capsazepine: Role of Membrane Span 10 of the α-Subunit in the Modulation of Ion Gating” (PLoS ONE, 2014)
# Test system: T1, Na+,K+-ATPase of adult rat ventricular myocytes
# T1 construct: gene Atp1a1; native pump in isolated adult male ventricular myocytes, whole-cell patch clamp; with Sodium/potassium-transporting ATPase subunit beta-1
# Experiment: whole-cell ruptured-patch pump current (K+-dependent Ip)
# Type: cell-based
# Details: 10 min perfusion, 5 mM external K+, 140 mM NaCl, pH 7.2, 35 °C
structure (smiles),measurement,value
Oc1cc2c(cc1O)CN(C(=S)NCCc1ccc(Cl)cc1)CCC2 [Capsazepine],% inhibition at 30 μM,85%
